Test results from US12421208B2, “Chemical compounds” (ASTRAZENECA AB, priority 2020, dated 2025).

Assays:
hERG = hERG (Homo sapiens, UniProt Q12809); test: hERG inhibition
Description: It is well known that blockade of the cardiac ion channel coded by human ether-n-gogo-related gene (hERG) is a risk factor in drug discovery and development. Blockage of hERG can cause safety problems such as cardiac arrhythmia. Advantageously, the compounds of Formula I have low hERG activity.

BRCA2 (−/−) DLD1 cells = test: PARP proliferation assay (7 day compound dosing), BRCA2 (−/−) DLD1; assay type: cell-based; settings: Homo sapiens, DLD-1, 168 h, BRCA2 −/− DLD-1 cells, 7 day dosing; read-out: BRCA2 −/− DLD-1 prolif. 7 d IC50
Protocol: (§1) PARP Proliferation Assay (7 Day Compound Dosing)
(§2) DLD1 and BRCA2 (−/−) DLD1 cells were harvested to a density of 5000 cells/ml and 2.5E4 cells/ml respectively in complete media, 40 μL/well seeded into 384-well plates (Greiner, Kremsmunster, Austria; 781090) using a Multidrop Combi then incubated at 37° C., 5% CO2 overnight. Next day (Day 1) using a Multidrop Combi add sytoxgreen (5 ul, 2 uM) and saponin (10 ul, 0.25% stock) to a day 0 plate, seal the plate using a black adhesive lid and incubate for >3 h at rt. Cells were imaged using Cell Insight (Thermo Fisher) fitted with a 4× objective. Test compounds are added using an Echo 555 and placed in incubator maintained at 37° C., 5% CO2 and incubated for 7 days. On Day 8 add sytox green (5 ul, 2 uM) and then saponin (10 ul, 0.25% stock) to plates, seal the plate using a black adhesive lid and incubate for >3 h at rt. Read all cells on the Cell Insight with 4× Objective. The rate of proliferation is determined in Genedata by assessing the total cell number output from the Cell Insight for Day 0 and Day 8 plates.

DLD1 cells = test: PARP proliferation assay (7 day compound dosing), WT DLD1; assay type: cell-based; settings: Homo sapiens, 168 h; WT DLD-1 cells, 7 day dosing; read-out: WT DLD-1 prolif. 7 d IC50
Protocol: as §1, §2

Sequence of hERG (Q12809 whole entry): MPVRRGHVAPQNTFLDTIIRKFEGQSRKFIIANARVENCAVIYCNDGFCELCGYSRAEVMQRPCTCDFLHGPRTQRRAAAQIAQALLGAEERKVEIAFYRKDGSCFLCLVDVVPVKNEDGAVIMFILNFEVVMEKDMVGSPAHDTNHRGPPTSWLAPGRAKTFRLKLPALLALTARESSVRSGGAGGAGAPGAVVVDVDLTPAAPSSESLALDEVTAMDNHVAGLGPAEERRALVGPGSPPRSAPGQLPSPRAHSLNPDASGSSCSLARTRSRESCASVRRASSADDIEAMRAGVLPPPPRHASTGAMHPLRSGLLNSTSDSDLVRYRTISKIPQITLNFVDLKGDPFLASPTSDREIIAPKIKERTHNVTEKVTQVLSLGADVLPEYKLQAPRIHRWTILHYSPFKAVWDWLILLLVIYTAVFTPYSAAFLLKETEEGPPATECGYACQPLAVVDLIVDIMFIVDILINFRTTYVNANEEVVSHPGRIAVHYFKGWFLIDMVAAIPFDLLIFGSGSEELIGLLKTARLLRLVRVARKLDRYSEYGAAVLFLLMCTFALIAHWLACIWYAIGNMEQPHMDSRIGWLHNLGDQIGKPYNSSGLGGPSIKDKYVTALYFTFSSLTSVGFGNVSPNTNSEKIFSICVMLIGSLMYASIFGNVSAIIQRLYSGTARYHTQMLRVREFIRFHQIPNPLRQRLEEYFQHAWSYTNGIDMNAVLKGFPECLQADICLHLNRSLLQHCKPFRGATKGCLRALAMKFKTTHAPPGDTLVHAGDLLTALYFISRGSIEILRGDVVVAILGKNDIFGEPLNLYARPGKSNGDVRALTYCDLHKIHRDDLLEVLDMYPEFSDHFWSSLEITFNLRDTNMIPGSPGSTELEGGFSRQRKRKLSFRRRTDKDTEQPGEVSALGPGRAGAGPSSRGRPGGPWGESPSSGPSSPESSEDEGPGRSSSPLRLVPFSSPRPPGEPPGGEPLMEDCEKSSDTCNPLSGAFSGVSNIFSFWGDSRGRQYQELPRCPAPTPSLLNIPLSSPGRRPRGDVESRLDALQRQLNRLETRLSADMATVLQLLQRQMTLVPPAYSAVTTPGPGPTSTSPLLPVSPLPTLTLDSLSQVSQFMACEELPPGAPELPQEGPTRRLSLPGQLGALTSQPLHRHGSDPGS

Structure (SMILES)	IC50 (hERG)	IC50 (BRCA2 (−/−) DLD1 cells)	IC50 (DLD1 cells)
CNC(=O)c1ccc(N2CCN(Cc3ccc4nc(C)c(=O)[nH]c4c3C)CC2)c(F)n1 [Example 1, 5-[4-[(2,5-dimethyl-3-oxo-4H-quinoxalin-6-yl)methyl]piperazin-1-yl]-6-fluoro-N-methyl-pyridine-2-carboxamide]	> 40000 nM	14 nM	24000 nM
CNC(=O)c1ccc(N2CCN(Cc3ccc4nc(C)c(=O)[nH]c4c3C)CC2)cn1 [Example 2, 5-[4-[(2,5-dimethyl-3-oxo-4H-quinoxalin-6-yl)methyl]piperazin-1-yl]-N-methyl-pyridine-2-carboxamide]	> 40000 nM	734 nM	
CNC(=O)c1ccc(N2CCN(Cc3ccc4nc(C)c(=O)[nH]c4c3C)CC2)c(Cl)n1 [Example 3, 6-chloro-5-[4-[(2,5-dimethyl-3-oxo-4H-quinoxalin-6-yl)methyl]piperazin-1-yl]-N-methyl-pyridine-2-carboxamide]	> 40000 nM	8 nM	25000 nM
CNC(=O)c1ccc(N2CCN(Cc3ccc4nc(C)c(=O)[nH]c4c3C)CC2)c(C)n1 [Example 4, 5-[4-[(2,5-dimethyl-3-oxo-4H-quinoxalin-6-yl)methyl]piperazin-1-yl]-N,6-dimethyl-pyridine-2-carboxamide]	> 40000 nM	81 nM	> 14000 nM
Cc1nc2ccc(CN3CCN(c4ccc(C(N)=O)nc4F)CC3)c(C)c2[nH]c1=O [Example 5, 5-[4-[(2,5-dimethyl-3-oxo-4H-quinoxalin-6-yl)methyl]piperazin-1-yl]-6-fluoro-pyridine-2-carboxamide]		2890 nM	
Cc1nc(C(N)=O)ccc1N1CCN(Cc2ccc3nc(C)c(=O)[nH]c3c2C)CC1 [Example 7, 5-[4-[(2,5-dimethyl-3-oxo-4H-quinoxalin-6-yl)methyl]piperazin-1-yl]-6-methyl-pyridine-2-carboxamide]		8430 nM	> 30000 nM
CNC(=O)c1ccc(N2CCN(Cc3ccc4nc(C(C)(F)F)c(=O)[nH]c4c3F)CC2)c(C)n1 [Example 19, 5-[4-[[2-(1,1-difluoroethyl)-5-fluoro-3-oxo-4H-quinoxalin-6-yl]methyl]piperazin-1-yl]-N,6-dimethyl-pyridine-2-carboxamide]	> 40000 nM	6 nM	
CNC(=O)c1ccc(N2CCN(Cc3ccc4nc(C)c(=O)[nH]c4c3F)CC2)c(C(F)F)n1 [Example 21, 6-(difluoromethyl)-5-[4-[(5-fluoro-2-methyl-3-oxo-4H-quinoxalin-6-yl)methyl]piperazin-1-yl]-N-methyl-pyridine-2-carboxamide]	> 40000 nM	1420 nM	
CCc1nc2ccc(CN3CCN(c4ccc(C(N)=O)nc4)CC3)c(F)c2[nH]c1=O [Example 25, 5-[4-[(2-ethyl-5-fluoro-3-oxo-4H-quinoxalin-6-yl)methyl]piperazin-1-yl]pyridine-2-carboxamide]		297 nM	
CCc1nc2ccc(CN3CCN(c4ccc(C(=O)NC)nc4Cl)CC3)c(F)c2[nH]c1=O [Example 28, 6-chloro-5-[4-[(2-ethyl-5-fluoro-3-oxo-4H-quinoxalin-6-yl)methyl]piperazin-1-yl]-N-methyl-pyridine-2-carboxamide]	> 38000 nM	4 nM	
CNC(=O)c1ccc(N2CCN(Cc3ccc4nc(C)c(=O)[nH]c4c3F)CC2)c(C)n1 [Example 31, 5-[4-[(5-fluoro-2-methyl-3-oxo-4H-quinoxalin-6-yl)methyl]piperazin-1-yl]-N,6-dimethyl-pyridine-2-carboxamide]	> 40000 nM		> 30000 nM
CNC(=O)c1ccc(N2CCN(Cc3ccc4ncc(=O)[nH]c4c3F)CC2)cn1 [Example 33, 5-[4-[(5-fluoro-3-oxo-4H-quinoxalin-6-yl)methyl]piperazin-1-yl]-N-methyl-pyridine-2-carboxamide]		> 30000 nM	
CNC(=O)c1ccc(N2CCN(Cc3ccc4ncc(=O)[nH]c4c3F)CC2)c(Cl)n1 [Example 34, 6-chloro-5-[4-[(5-fluoro-3-oxo-4H-quinoxalin-6-yl)methyl]piperazin-1-yl]-N-methyl-pyridine-2-carboxamide]		8440 nM	
CNC(=O)c1ccc(N2CCN(Cc3ccc4ncc(=O)[nH]c4c3F)CC2)c(C)n1 [Example 35, 5-[4-[(5-fluoro-3-oxo-4H-quinoxalin-6-yl)methyl]piperazin-1-yl]-N,6-dimethyl-pyridine-2-carboxamide]		10300 nM	> 30000 nM
CNC(=O)c1ccc(N2CCN(Cc3ccc4ncc(=O)[nH]c4c3F)CC2)c(F)n1 [Example 36, 6-fluoro-5-[4-[(5-fluoro-3-oxo-4H-quinoxalin-6-yl)methyl]piperazin-1-yl]-N-methyl-pyridine-2-carboxamide]		16200 nM	
CNC(=O)c1ccc(N2CCN(Cc3ccc4nc(C(F)F)c(=O)[nH]c4c3F)CC2)c(C)n1 [Example 37, 5-[4-[[2-(difluoromethyl)-5-fluoro-3-oxo-4H-quinoxalin-6-yl]methyl]piperazin-1-yl]-N,6-dimethyl-pyridine-2-carboxamide]		10 nM	
CNC(=O)c1ccc(N2CCN(Cc3ccc4nc(OC)c(=O)[nH]c4c3F)CC2)cn1 [Example 38, 5-[4-[(5-fluoro-2-methoxy-3-oxo-4H-quinoxalin-6-yl)methyl]piperazin-1-yl]-N-methyl-pyridine-2-carboxamide]	> 40000 nM	547 nM	
CNC(=O)c1ccc(N2CCN(Cc3ccc4nc(OC)c(=O)[nH]c4c3F)CC2)c(F)n1 [Example 39, 6-fluoro-5-[4-[(5-fluoro-2-methoxy-3-oxo-4H-quinoxalin-6-yl)methyl]piperazin-1-yl]-N-methyl-pyridine-2-carboxamide]	> 40000 nM	8 nM	
CNC(=O)c1ccc(N2CCN(Cc3ccc4nc(OC)c(=O)[nH]c4c3F)CC2)c(C)n1 [Example 40, 5-[4-[(5-fluoro-2-methoxy-3-oxo-4H-quinoxalin-6-yl)methyl]piperazin-1-yl]-N,6-dimethyl-pyridine-2-carboxamide]	> 40000 nM	7 nM	
CNC(=O)c1ccc(N2CCN(Cc3ccc4nc(OC)c(=O)[nH]c4c3F)CC2)c(Cl)n1 [Example 41, 6-chloro-5-[4-[(5-fluoro-2-methoxy-3-oxo-4H-quinoxalin-6-yl)methyl]piperazin-1-yl]-N-methyl-pyridine-2-carboxamide]	> 40000 nM	7 nM	
CCc1nc2ccc(CN3CCN(c4ccc(C(=O)NC)nc4C)CC3)c(C)c2[nH]c1=O [Example 42, 5-[4-[(2-ethyl-5-methyl-3-oxo-4H-quinoxalin-6-yl)methyl]piperazin-1-yl]-N,6-dimethyl-pyridine-2-carboxamide]		6 nM	
CCc1nc2ccc(CN3CCN(c4ccc(C(=O)NC)nc4F)CC3)c(C)c2[nH]c1=O [Example 43, 5-[4-[(2-ethyl-5-methyl-3-oxo-4H-quinoxalin-6-yl)methyl]piperazin-1-yl]-6-fluoro-N-methyl-pyridine-2-carboxamide]		10 nM	
CCc1nc2ccc(CN3CCN(c4ccc(C(=O)NC)nc4)CC3)c(C)c2[nH]c1=O [Example 44, 5-[4-[(2-ethyl-5-methyl-3-oxo-4H-quinoxalin-6-yl)methyl]piperazin-1-yl]-N-methyl-pyridine-2-carboxamide]		> 30000 nM	
CCNC(=O)c1ccc(N2CCN(Cc3ccc4nc(C)c(=O)[nH]c4c3F)CC2)c(F)n1 [Example 45, N-ethyl-6-fluoro-5-[4-[(5-fluoro-2-methyl-3-oxo-4H-quinoxalin-6-yl)methyl]piperazin-1-yl]pyridine-2-carboxamide]		6 nM	
CCNC(=O)c1ccc(N2CCN(Cc3ccc4nc(C)c(=O)[nH]c4c3F)CC2)c(C)n1 [Example 46, N-ethyl-5-[4-[(5-fluoro-2-methyl-3-oxo-4H-quinoxalin-6-yl)methyl]piperazin-1-yl]-6-methyl-pyridine-2-carboxamide]		13 nM	
CNC(=O)c1ccc(N2CCN(Cc3ccc4nc(C(F)(F)F)c(=O)[nH]c4c3F)CC2)c(C)n1 [Example 47, 5-[4-[[5-fluoro-3-oxo-2-(trifluoromethyl)-4H-quinoxalin-6-yl]methyl]piperazin-1-yl]-N,6-dimethyl-pyridine-2-carboxamide]	> 40000 nM	58 nM	
CNC(=O)c1ccc(N2CCN(Cc3ccc4nc(C(F)(F)F)c(=O)[nH]c4c3F)CC2)c(Cl)n1 [Example 49, 6-chloro-5-[4-[[5-fluoro-3-oxo-2-(trifluoromethyl)-4H-quinoxalin-6-yl]methyl]piperazin-1-yl]-N-methyl-pyridine-2-carboxamide]	> 40000 nM	41 nM	
CNC(=O)c1ccc(N2CCN(Cc3ccc4nc(C(F)(F)F)c(=O)[nH]c4c3F)CC2)cn1 [Example 50, 5-[4-[[5-fluoro-3-oxo-2-(trifluoromethyl)-4H-quinoxalin-6-yl]methyl]piperazin-1-yl]-N-methyl-pyridine-2-carboxamide]	> 40000 nM	136 nM	
